Test results taken from patent US20240287136A1, “PHARMACEUTICAL COMPOSITION AND THE USE THEREOF IN THE TREATMENT OF AUTOIMMUNE DISEASES” (Singapore Health Services Pte. Ltd., priority 2016, published 2024).
Ends that are not written are not given here.

What was measured:
[1] = tested on: patients with early rheumatoid arthritis; test: Phase II trial of mucosal tolerization to SEQ ID NO. 1: clinical outcome; type: in vivo, human
Experimental: The model employed here is based on the hypothesis that immune tolerization to a T-cell epitope, such as SEQ ID NO. 1 that may be a contributor of inflammation in patients with rheumatoid arthritis, may lead to detectable clinical improvement. A total of 96 patients with early rheumatoid arthritis, who were not allowed on Methotrexate or biologics, were tested with mucosal tolerization to SEQ ID NO. 1. Patients are defined as “responders” if they meet the response criteria at any time during the study. […] SEQ ID NO. […]

PBMCs = test: TaqMan gene expression of regulatory molecules in PBMCs incubated in vitro with SEQ ID NO. 1; type: cell-based, human; conditions: T0 PBMCs incubated with 10 mg/ml SEQ ID NO. 1 for 48 hours
Experimental: PBMCs from T0 were incubated in vitro with 10 mg/ml SEQ ID NO. 1 for 48 hours, and TaqMan was performed as described earlier. Data are expressed as 2(−dCT)×100 of GAPDH. PD-1, 0.3595+/−0.1033 vs 0.9310+/−0.1961, n=S, p0.0327 PD-L1, 0.1400+/−0.05308 vs 1.080+/−0.1926, n=6, p0.0005 CTLA-4, 0.2667+/−0.07313 vs 4.809+/−2.606, n=6, p0.0588 Foxp3, 0.2678+/−0.1267 vs 2.329+/−0.9527, n=6, p0.0422 P values were obtained by t-test.

[2] = tested on: peripheral blood mononuclear cells (PBMCs); test: Immune deviation in PBMCs of trial patients (cytokine production, PD-1 expression); type: in vivo, human; conditions: for production of interleukin 10 (IL-10) / production of tumor necrosis factor α (TNFα): PBMCs / T cell subset of treated patients; for expression of Programmed Death 1 (PD-1) in PBMC: clinical responders, data not shown
Experimental: The model employed here is based on the hypothesis that immune tolerization to a T-cell epitope, such as SEQ ID NO. 1 that may be a contributor of inflammation in patients with rheumatoid arthritis, may lead to detectable clinical improvement. A total of 96 patients with early rheumatoid arthritis, who were not allowed on Methotrexate or biologics, were tested with mucosal tolerization to SEQ ID NO. 1. Patients are defined as “responders” if they meet the response criteria at any time during the study. […] SEQ ID NO.
1 (herein dubbed clinical responders) was observed (data not shown). PD-1 was first described as a contributor to T-cell anergy and exhaustion in chronic viral infections and cancer.
It is established that SEQ ID NO: 1 treatment was associated with an immune deviation in the T cell subset characterized by a decrease and an increase in tumor necrosis factor α (TNFα) and IL-10, respectively.

[3] = tested on: effector T cells (Teff) (CD4+CD127+); test: Gene expression in FACS-sorted Teff of trial patients (TaqMan); type: in vivo, human
Experimental: FIG. 3. Effector and regulatory T cell function differ according to clinical response: a. effector T cells (Teff) (CD4+CD127+) at beginning of the trial (TO) and end of the study (Tend) were compared for PD-1 expression in both SEQ ID NO. 1 clinical responders and placebo clinical non-responders by FACS. b. FACS-sorted Teffwere analyzed for IL-17 and for RORC. Teff were stained intracellularly with IL-17A, and analyzed by FACS. c. regulatory T cell (Treg) (CD4+CD25++CD127−) frequency (% of PBMC) was determined in SEQ ID NO. 1—treated clinical responders by FACS. […] Values are the mean and s.e.m. d. Treg functionality in SEQ ID NO. […] (placebo clinical non-responders vs SEQ ID NO. 1 clinical responders, —76.21+/−3.665 vs 8.443+/−4.677, n=2 vs 3, t-test p0.0010). Values are the mean and s.e.m.
In FIG. 3b Y axis: % net change between Tend and T0 for both Teff producing IL-17A (first two columns, measured by FACS) and RORC expression (measured by TaqMan). […] Results were analyzed as a percentage of GAPDH. […] Values are the mean and s.e.m.
Successful treatment with SEQ ID NO: 1 therefore induced an immune deviation of Teff cells by reducing their ability to produce pro-inflammatory cytokines. An increase in the number of Treg cells could be one possible explanation for this observation.

[4] = type: in vitro ADME; conditions: without a linker; data not shown
Description: This is synthetically of less interest to a person skilled in the art since it usually involves multiple-step synthesis for making the peptide. In the presence of the linker, the peptide SEQ ID No: 1 and the antirheumatic drug can be administered in equal proportion because the linker protects the peptide from degradation and thus enhance the stability of the peptide.

[5] = placebo clinical non-responders
[6] = responders, end of the treatment regime (FIG. 9A)

For QKRAAYDQYGHAAFE-NH2 [SEQ ID NO. 1], the “safety of mucosal tolerization” value ([1]; 96 patients with early rheumatoid arthritis) was “safe”, the clinical efficacy ([1]; 96 patients with early rheumatoid arthritis, no Methotrexate or biologics) was “comparable to the use of Methotrexate alone” and the joint pain ([1]; after treatment withdrawal (FIG. 11E)) was “Sustained improvements”. For the same substance, the joint swelling ([1]; after treatment withdrawal (FIG. 11F)) was “Sustained improvements”, the “Physician global assessment scores” value ([1]; one month after clinical withdrawal, versus placebo (FIG. 11D)) was “performed better than placebo” and the “CTLA-4 gene expression in PBMCs” value (PBMCs; clinical responders) was 4.809+/−2.606 2(−dCT)×100 of GAPDH. For the same substance, the “Foxp3 gene expression in PBMCs” value (PBMCs; clinical responders) was 2.329+/−0.9527 2(−dCT)×100 of GAPDH, the “PD-1 gene expression in PBMCs” value (PBMCs; clinical responders) was 0.9310+/−0.1961 2(−dCT)×100 of GAPDH and the “PD-L1 gene expression in PBMCs” value (PBMCs; clinical responders) was 1.080+/−0.1926 2(−dCT)×100 of GAPDH. For the same substance, the “CTLA-4 gene expression in PBMCs” value (PBMCs; [5]) was 0.2667+/−0.07313 2(−dCT)×100 of GAPDH, the “Foxp3 gene expression in PBMCs” value (PBMCs; [5]) was 0.2678+/−0.1267 2(−dCT)×100 of GAPDH and the “PD-1 gene expression in PBMCs” value (PBMCs; [5]) was 0.3595+/−0.1033 2(−dCT)×100 of GAPDH. For the same substance, the “PD-L1 gene expression in PBMCs” value (PBMCs; [5]) was 0.1400+/−0.05308 2(−dCT)×100 of GAPDH, the “production of interleukin 10 (IL-10)” value [2] was “increased production” and the “production of tumor necrosis factor α (TNFα)” value [2] was “decreased production”. The “production of interleukin 10 (IL-10)” value ([2]; listed as SEQ ID NO: 1) was “increase”, the “production of tumor necrosis factor α (TNFα)” value ([2]; listed as SEQ ID NO: 1) was “decrease” and the “expression of Programmed Death 1 (PD-1) in PBMC” value [2] was “significantly higher expression”. For the same substance, the “expression of Programmed Death 1 (PD-1) in PBMC” value ([2]; listed as SEQ ID NO: 1) was “significantly higher levels”, the “RORC gene expression in Teff” value ([3]; clinical responders, Tend, T0 3.382+/−0.684, mean and s.e.m.) was 1.670+/−0.714 percentage of GAPDH and the “IFNγ expression in CD4+Teff cells” value [3, 6] was “significantly lower levels”. For the same substance, the “IL-17A expression in CD4+Teff cells” value [3, 6] was “significantly lower levels” and the “stability of the peptide upon ingestion” value [4] was “prone to degradation upon ingestion”.
